According to US4410459A, “Process for preparation of cytostatic compounds” (priority 1980, dated 1983):
Read-outs that look alike come from different tables or passages of the source.

Columns and labels:
[1] = Acute toxicity in mice (i.p., Lichfield and Wilcoxon), with paralytic side effect; format: in vivo, male Swiss mice; details: for LD50: mouse, in vivo, ip; for Paralytic side effect: symbols 0 / + not defined
Protocol: The acute toxicity of the compounds according to the invention was tested on male Swiss mice weighing 27 to 31 g. The tests were carried out on groups of six mice. Test compounds were administered intraperitoneally, as injectable solutions prepared with physiological saline solution and optionally one drop of Tween 80.

[2] = system: P 388 mouse leukaemia; experiment: P 388 leukaemia test (life span of i.p. transplanted mice); format: in vivo, BDF hybrid mice
Protocol: (§1) The effect of the new compounds on intraperitoneally transplantable tumors (P 388 mouse leukaemia and NK/Ly ascites lymphoma) is described hereinbelow. The P 388 leukaemia test was performed on BDF hybrid mice. The tests were carried out on groups of six mice and 10^6 tumor cells/animal were transplanted intraperitoneally. Administration of the test compounds was started in the 24th hour after transplantation. Treatment was performed intraperitoneally and the body weight and state of animals was controlled every day. The effect obtained on the treated animals is expressed in % of the mean length of life of the control group, given in days.

[3] = system: NK/Ly ascites lymphoma; experiment: NK/Ly ascites tumour test (survival and tumor-free animals); format: in vivo, Swiss-H/Riop outbred mice
Protocol: as §1
(§2) Into groups of ten Swiss-H/Riop outbred mice from our own breed 5×10^6 ascites tumour cells were transplanted intraperitoneally. In the 24th hour after transplantation treatment was started and the compounds were administered daily, altogether five times. The mean length of life of the control group amounted to 15.7 days.

[4] = system: HeLa culture; experiment: Metaphase block stages in stained tissue cultures; format: cell-based; details: for effect on mitosis at lowest dose: 0.001 μg./ml.
Protocol: The test compounds were dissolved in the tissue cultures (HeLa culture) in concentrations ranging from the threshold dose of 1×10^-3 μg./ml. up to 100 μg./ml. In 24-hour cultures, by in vivo microscopic evaluation of the metaphase-arresting affect the following results were obtained.
Under similar conditions but using stained tissue cultures slight differences could be observed which can be classified as follows:
The first stage (minimal effective dose) is characterized by an increased ratio of blocked mitoses. A part is abnormal mitoses, for example three-group mitosis or polar chromosomes also occur. Generally the anaphases have already disappeared.
In the second stage a strong metaphase blocking is observed and practically there is no regulare mitosis present. Chromosomes are in the form of a loose glomus. The proportion of interphase cells is low.
In the third stage the chromosomas are aggregated in a mass in the middle of the cell. This state is called picnomitosis of "Ball-Metaphase".
In the fourth stage already the interphase cells are influenced. More particularly, the number of the blocked cells is decreased since they are not able to take part in mitosis. The cytoplasm of the cells (in interphase) is extended, its border is irregular, "fringy", the cells frequently have an elongated, fibroplast-like shape.
Finally, in the fifth stage the cytoplasm is filled in by a fine, reticular structure and the interphase cell has unambiguously been killed by the treatment.

[5] = system: intraperitoneally transplantable tumors (P 388 mouse leukaemia and NK/Ly ascites lymphoma); experiment: Similar transplanted tumor tests with N-desmethyl-N-(methoxymethyl)-20'-desoxy-leurosidine (life span); format: in vivo; details: for Treated/Control: mean length of life
Protocol: as §1, §2
Similar tests were performed with N-desmethyl-N-(methoxymethyl)-20'-desoxy-leurosidine. In these tests the doses and the number of treatments were varied.

[6] = Mus musculus, P388, ip, mean length of life, 8 × 0.4 mg./kg. i.p., read-out: Treated/Control
[7] = Mus musculus, P388, ip, mean length of life, 8 × 4.0 mg./kg. i.p., read-out: Treated/Control
[8] = Mus musculus, P388, ip, mean length of life, 8 × 8.0 mg./kg. i.p., read-out: Treated/Control
[9] = Mus musculus, P388, ip, mean length of life, 8 × 2.0 mg./kg. i.p., read-out: Treated/Control
[10] = Mus musculus, P388, ip, mean length of life, 8 × 1.0 mg./kg. i.p., read-out: Treated/Control

| Structure (SMILES) | LD50 [1] | Paralytic side effect [1] | Mean length of life, treated ([2]; 8 × 0.4 mg./kg. i.p.) | Mean length of life, treated ([2]; 8 × 4.0 mg./kg. i.p.) | Mean length of life, treated ([2]; 8 × 8.0 mg./kg. i.p.) | response vs control in vivo at 0.4 mg/kg [2, 6] | response vs control in vivo at 4 mg/kg [2, 7] | response vs control in vivo at 8 mg/kg [2, 8] | further results |
| --- | --- | --- | --- | --- | --- | --- | --- | --- | --- |
| C=CCOCN1c2cc(OC)c(C3(C(=O)OC)CC4CN(CCc5c3[nH]c3ccccc53)CC(O)(CC)C4)cc2C23CCN4CC=CC(CC)(C(OC(C)=O)C(O)(C(=O)OC)C12)C43 (centres unmarked) [N-Desmethyl-N-(allyloxymethyl)-vinblastine] | ~45 mg/kg | 0 | 15.0 days | 21.0 days | 20.5 days | 145% | 200% | 207% | alive ([3]; 5 × 4.0 mg./kg. i.p.): 10/10; on the 25th day tumor-free ([3]; 5 × 4.0 mg./kg. i.p.): 10/10; on the 30th day tumor-free ([3]; 5 × 4.0 mg./kg. i.p.): 6/10 |
| CCC1(O)CC2CN(CCc3c([nH]c4ccccc34)C(C(=O)OC)(c3cc4c(cc3OC)N(COCc3ccccc3)C3C(O)(C(=O)OC)C(OC(C)=O)C5(CC)C=CCN6CCC43C65)C2)C1 (centres unmarked) [N-Desmethyl-N-(benzyloxymethyl)-vinblastine] | ~70 mg/kg | 0 | 13.0 days | 18.3 days |  | 126% | 178% |  | relative effectiveness [4]: weakest effect; effect on mitosis at lowest dose [4]: minimum block with several deformed mitoses but without anaphases; effect on mitosis at 0.01 μg./ml. ([4]; 0.01 μg./ml.): the block was moderate; Mean length of life, treated ([2]; 5 × 8.0 mg./kg. i.p.): 19.2 days; response vs control in vivo at 8 mg/kg ([2]; Mus musculus, P388, ip, mean length of life, 5 × 8.0 mg./kg. i.p., read-out: Treated/Control): 195% |
| CCC1(O)CC2CN(CCc3c([nH]c4ccccc34)C(C(=O)OC)(c3cc4c(cc3OC)N(COC3CCCCC3)C3C(O)(C(=O)OC)C(OC(C)=O)C5(CC)C=CCN6CCC43C65)C2)C1 (centres unmarked) [N-Desmethyl-N-(cyclohexaloxymethyl)vinblastine] | ~60 mg/kg | 0 | 13.1 days | 18.8 days | 19.3 days | 127% | 181% | 197% | alive ([3]; 5 × 4.0 mg./kg. i.p.): 10/10; on the 25th day tumor-free ([3]; 5 × 4.0 mg./kg. i.p.): 5/10; on the 30th day tumor-free ([3]; 5 × 4.0 mg./kg. i.p.): 3/10 |
| CCOCN1c2cc(OC)c(C3(C(=O)OC)CC4CN(CCc5c3[nH]c3ccccc53)CC(O)(CC)C4)cc2C23CCN4CC=CC(CC)(C(OC(C)=O)C(O)(C(=O)OC)C12)C43 (centres unmarked) [N-Desmethyl-N-(ethoxymethyl)-vinblastine] | ~110 mg/kg | 0 |  | 18.5 days | 20.5 days |  | 167% | 208% | Mean length of life, treated ([2]; 8 × 2.0 mg./kg. i.p.): 20.3 days; response vs control in vivo at 2 mg/kg [2, 9]: 193% |
| CCCCCCCOCN1c2cc(OC)c(C3(C(=O)OC)CC4CN(CCc5c3[nH]c3ccccc53)CC(O)(CC)C4)cc2C23CCN4CC=CC(CC)(C(OC(C)=O)C(O)(C(=O)OC)C12)C43 (centres unmarked) [N-Desmethyl-N-(heptoxymethyl)-vinblastine] | ~60 mg/kg | 0 | 14.3 days | 18.7 days | 21.3 days | 139% | 181% | 247% | relative effectiveness [4]: most effective compound; alive ([3]; 5 × 6.0 mg./kg. i.p.): 10/10; on the 25th day tumor-free ([3]; 5 × 6.0 mg./kg. i.p.): 7/10; on the 30th day tumor-free ([3]; 5 × 6.0 mg./kg. i.p.): 3/10 |
| CCC1(O)CC2CN(CCc3c([nH]c4ccccc34)C(C(=O)OC)(c3cc4c(cc3OC)N(COCC(C)C)C3C(O)(C(=O)OC)C(OC(C)=O)C5(CC)C=CCN6CCC43C65)C2)C1 (centres unmarked) [N-Desmethyl-N-(isobutoxymethyl)-vinblastine] | ~60 mg/kg | 0 | 13.7 days | 20.0 days | 20.5 days | 133% | 194% | 208% | relative effectiveness [4]: an order of a magnitude lower effect; effect on mitosis at lowest dose [4]: regular mitoses could still be observed; alive ([3]; 5 × 4.0 mg./kg. i.p.): 10/10; on the 25th day tumor-free ([3]; 5 × 4.0 mg./kg. i.p.): 10/10; on the 30th day tumor-free ([3]; 5 × 4.0 mg./kg. i.p.): 7/10 |
| CCC1CC2CN(CCc3c([nH]c4ccccc34)C(C(=O)OC)(c3cc4c(cc3OC)N(COC)C3C(O)(C(=O)OC)C(OC(C)=O)C5(CC)C=CCN6CCC43C65)C2)C1 (centres unmarked) [N-Desmethyl-N-(methoxymethyl)-20'-desoxyleurosidine] |  |  |  |  |  |  |  |  | Mean length of life, treated ([5]; 4 × 7 mg./kg. i.p.): 17.1 days; Mean length of life, treated ([5]; 4 × 8 mg./kg. i.p.): 21.8 days; Mean length of life, treated ([5]; 8 × 0.5 mg./kg. i.p.): 15.3 days; Mean length of life, treated ([5]; 8 × 1 mg./kg. i.p.): 21.7 days; Mean length of life, treated ([5]; 8 × 4 mg./kg. i.p.): 20.8 days; Treated/Control ([5]; 4 × 7 mg./kg. i.p.): 142%; Treated/Control ([5]; 4 × 8 mg./kg. i.p.): 180%; Treated/Control ([5]; 8 × 0.5 mg./kg. i.p.): 126%; Treated/Control ([5]; 8 × 1 mg./kg. i.p.): 178%; Treated/Control ([5]; 8 × 4 mg./kg. i.p.): 180% |
| CCC1(O)CC2CN(CCc3c([nH]c4ccccc34)C(C(=O)OC)(c3cc4c(cc3OC)N(COC)C3C(O)(C(=O)OC)C(OC(C)=O)C5(CC)C=CCN6CCC43C65)C2)C1 (centres unmarked) [N-Desmethyl-N-(methoxymethyl)-vinblastine] | ~100 mg/kg | 0 |  |  |  |  | 171% |  | Mean length of life, treated ([2]; 8 × 1.0 mg./kg. i.p.): 12.7 days; Mean length of life, treated ([2]; 8 × 6.0 mg./kg. i.p.): 19.2 days; response vs control in vivo at 1 mg/kg [2, 10]: 122%; response vs control in vivo at 6 mg/kg ([2]; Mus musculus, P388, ip, mean length of life, 8 × 6.0 mg./kg. i.p., read-out: Treated/Control): 182% |
| CCCOCN1c2cc(OC)c(C3(C(=O)OC)CC4CN(CCc5c3[nH]c3ccccc53)CC(O)(CC)C4)cc2C23CCN4CC=CC(CC)(C(OC(C)=O)C(O)(C(=O)OC)C12)C43 (centres unmarked) [N-Desmethyl-N-(propoxymethyl)-vinblastine] | ~80 mg/kg | 0 |  | 19.0 days | 20.2 days |  | 171% | 205% | Mean length of life, treated ([2]; 8 × 1.0 mg./kg. i.p.): 15.0 days; Mean length of life, treated ([2]; 8 × 2.0 mg./kg. i.p.): 20.8 days; Mean length of life, treated ([2]; 8 × 10.0 mg./kg. i.p.): 14.7 days; Toxicity ([2]; 8 × 10.0 mg./kg. i.p., footnote: The animals died tumorfree): toxic; response vs control in vivo at 1 mg/kg [2, 10]: 145%; response vs control in vivo at 2 mg/kg [2, 9]: 198%; response vs control in vivo at 10 mg/kg ([2]; Mus musculus, P388, ip, mean length of life, 8 × 10.0 mg./kg. i.p., read-out: Treated/Control): 142% |
| CC[C@]1(O)C[C@@H]2CN(CCc3c([nH]c4ccccc34)[C@@](C(=O)OC)(c3cc4c(cc3OC)N(C)[C@H]3[C@@](O)(C(=O)OC)[C@H](OC(C)=O)[C@]5(CC)C=CCN6CC[C@]43[C@@H]65)C2)C1 [vinblastine, reference compound] |  | 0 |  |  |  |  |  |  |  |
| CC[C@]1(O)C[C@@H]2CN(CCc3c([nH]c4ccccc34)[C@@](C(=O)OC)(c3cc4c(cc3OC)N(C)[C@H]3[C@@](O)(C(N)=O)[C@H](O)[C@]5(CC)C=CCN6CC[C@]43[C@@H]65)C2)C1 [vindesine, reference compound] | 4 mg/kg |  |  |  |  |  |  |  |  |
